Data published in patent publication US20220047569A1, “METHOD AND COMPOUND FOR USE, IN TREATING AND/OR PREVENTING NETOSIS” (Jubilant EpiPad LLC, priority 2020, published 2022).
Counter-ions that a name gives are not always drawn.

tested on: Histone H3 Citrullination in Neutrophils; assay: Citrullination ELISA (Citrullinated Histone H3) in calcium ionophore stimulated neutrophils; type: cell-based; details: Neutrophil; human neutrophils, 25 μM calcium ionophore, CitH3 ELISA
Procedure: Neutrophils were isolated according to the EasySep Direct Human Neutrophil Isolation Kit. In short, 50 mL of blood sample was drawn in a vacutainer containing K2EDTA from a healthy donor. To the whole blood, the isolation cocktail of 50 μL/mL was added. Then, in the next step 50 μL/mL of RapidSpheres™ was added to the sample. The sample was mixed evenly with the pipette and incubated for 10 minutes at room temperature. After incubation, PBS containing 1 mM EDTA was added at the ratio of 1:1 to the blood. Then the sample tube was incubated for 10 minutes. The enriched cell suspension was transferred into a new tube and RapidSpheres™ were added at 50 μL/mL to this suspension, mixed and incubated for 10 minutes at room temperature. At this step, the enriched cell suspension was carefully collected as a clear fraction into a fresh tube. Then, previous tube was replaced with the fresh tube containing enriched cell suspension. After the final separation, the clear solution of enriched cell suspension was carefully transferred to fresh tube which was ready to use for the experiment. These cells were then subjected to wash twice with plain RPMI 1640 media without Fetal Bovine Serum (FBS) and centrifuged at 1500 rpm for 5 minutes at room temperature. Cell counts were performed on each sample by Invitrogen cell counter. After the cell count, cell density was adjusted according to the experiment and re-suspended in complete RPMI media containing RPMI1640, 2% BSA and 1 mM CaCl2.
Freshly isolated neutrophils from human donor were seeded at a density of 0.5×10^6 cells in 400 μL cell suspension/well in a 24-well plate and cells were pre-incubated with the compound for 30 minutes by adding 50 μL of the 10× concentration to achieve the final 1× concentration of compound (10 μM, 1 μM and 0.1 μM). 1% DMSO was added in control wells. Then, the cells were stimulated in the presence and absence of calcium ionophore by adding 50 μL/well to achieve the final concentration of 25 μM. Upon incubation for 30 minutes with calcium ionophore, S7 nuclease was added to the wells and incubated for 10 minutes to disrupt NET DNA. Following incubation, 10 μL of 1 mM EDTA was added to inactivate nuclease. Cells were scrapped gently and transferred to the tubes, followed by centrifugation at 1500 rpm for 5 minutes. After centrifugation, supernatant was discarded, and 200 μL of lysis buffer containing PBS and 1× Protease inhibitor was added to the tubes. The obtained lysis was then subjected to mechanical shearing using Geno grinder by spin the plate at 2500 rpm for 10 minutes, followed by collection of supernatant and stored at −20° C. or immediately used for ELISA.
ELISA was performed as per Citrullinated Histone H3 ELISA Kit. All the buffer components from the kit were dissolved according to the manufactures protocol. ELISA Buffer Concentrate (10×) (Item No. 400060) and Wash Buffer Concentrate (400×) (Item No. 400060) along with polysorbate 20 (2000×) (Item No. 400035) was diluted to 1× with milliQ water. The standard for use in the ELISA was prepared as follows: • Obtain eight clean test tubes and label them, #1 through #8. Aliquot 4.9 mL of ELISA Buffer into tube #1. • Aliquot 500 μL of ELISA Buffer into the tubes #2-8. […] This tube is considered as blank, the lowest point on the standard curve.
100 μL of standards or diluted sample was added to the appropriate wells on the 96-well plate. Plates were covered with 96-well cover sheet and incubated for two hours at room temperature on an orbital shaker. The samples and standard were removed from the wells and washed four times with Wash Buffer. After the last wash, Anti-Histone H3 HRP Conjugate (Item No. 501441) (10×) stock solution was diluted in 1×ELISA buffer and 100 μL of the HRP Conjugate working solution was added to each well of the plate and incubated for one hour at room temperature on an orbital shaker. […]

| SMILES | IC50 [nM] |
| --- | --- |
| N[C@@H]1CCCN(C(=O)c2cc3c4c(c2)nc(-c2cc5cc(F)ccc5n2CC2CC2)n4CCN3)C1 [Compound 150, (R)-(3-aminopiperidin-1-yl)(2-(1-(cyclopropylmethyl)-5-fluoro-1H-indol-2-yl)-5,6-dihydro-4H-imidazo[1,5,4-de]quinoxalin-8-yl)methanone] | 100 to 1000 |
| N[C@@H]1CCCN(C(=O)c2cc3c4c(c2)nc(-c2cc5ccc(F)cc5n2CC2CC2)n4CCO3)C1 [Compound 114, (R)-(3-aminopiperidin-1-yl)(2-(1-(cyclopropylmethyl)-6-fluoro-1H-indol-2-yl)-3,4-dihydro-5-oxa-1,2a-diazaacenaphthylen-7-yl)methanone] | < 100 |
| COCCn1c(-c2nc3cc(C(=O)N4CCC[C@@H](N)C4)cc4c3n2CCO4)cc2cccc(Cl)c21 [Compound 122, (R)-(3-aminopiperidin-1-yl)(2-(7-chloro-1-(2-methoxyethyl)-1H-indol-2-yl)-3,4-dihydro-5-oxa-1,2a-diazaacenaphthylen-7-yl)methanone] | 100 to 1000 |
| Cc1c(-c2cc3ccccc3n2Cc2ncccc2F)nc2cc(C(=O)N3CCC[C@@H](N)C3)ccn12 [Compound 62, (R)-(3-aminopiperidin-1-yl)(2-(1-((3-fluoropyridin-2-yl)methyl)-1H-indol-2-yl)-3-methylimidazo[1,2-a]pyridin-7-yl)methanone] | 100 to 1000 |
| N[C@@H]1CCCN(C(=O)c2cc3c4c(c2)nc(-c2cc5ccccc5n2Cc2ccc(CO)cc2)n4CCO3)C1 [Compound 123, (R)-(3-aminopiperidin-1-yl)(2-(1-(4-(hydroxymethyl)benzyl)-1H-indol-2-yl)-3,4-dihydro-5-oxa-1,2a-diazaacenaphthylen-7-yl)methanone trifluoroacetic acid salt] | 100 to 1000 |
| CCn1c(-c2nc3cc(C(=O)N4CCC[C@@H](N)C4)ccn3c2C)cc2ccc(F)cc21 [Compound 72, (R)-(3-aminopiperidin-1-yl)(2-(1-ethyl-6-fluoro-1H-indol-2-yl)-3-methylimidazo[1,2-a]pyridin-7-yl)methanone] | 100 to 1000 |
| Cc1c(-c2cc3cccc(Cl)c3n2CC2CC2)nc2cc(C(=O)N3CCC[C@@H](N)C3)ccn12 [Compound 44, (R)-(3-aminopiperidin-1-yl)(2-(7-chloro-1-(cyclopropylmethyl)-1H-indol-2-yl)-3-methylimidazo[1,2-a]pyridin-7-yl)methanone] | < 100 |
| N[C@@H]1CCCN(C(=O)c2cc3c4c(c2)nc(-c2cc5ccccc5n2Cc2ccccc2F)n4CCN3)C1 [Compound 156, (R)-(3-aminopiperidin-1-yl)(2-(1-(2-fluorobenzyl)-1H-indol-2-yl)-5,6-dihydro-4H-imidazo[1,5,4-de]quinoxalin-8-yl)methanone] | < 100 |
| Cc1c(-c2cc3ccccc3n2Cc2ccc(F)cc2)nc2cc(C(=O)N3CCC[C@@H](N)C3)ccn12 [Compound 13, (R)-(3-aminopiperidin-1-yl)(2-(1-(4-fluorobenzyl)-1H-indol-2-yl)-3-methylimidazo[1,2-a]pyridin-7-yl)methanone] | 100 to 1000 |
| COCCn1c(-c2nc3cc(C(=O)N4CCC[C@@H](N)C4)cc4c3n2CCO4)cc2cc(F)ccc21 [Compound 134, (R)-(3-aminopiperidin-1-yl)(2-(5-fluoro-1-(2-methoxyethyl)-1H-indol-2-yl)-3,4-dihydro-5-oxa-1,2a-diazaacenaphthylen-7-yl)methanone] | 100 to 1000 |
| Cc1cccc2cc(-c3nc4cc(C(=O)N5CCC[C@@H](N)C5)ccn4c3C)n(CC3CC3)c12 [Compound 30, (R)-(3-aminopiperidin-1-yl)(2-(1-(cyclopropylmethyl)-7-methyl-1H-indol-2-yl)-3-methylimidazo[1,2-a]pyridin-7-yl)methanone] | 100 to 1000 |
| N[C@@H]1CCCN(C(=O)c2cc3c4c(c2)nc(-c2cc5cc(Br)ccc5n2CC2CC2)n4CCN3)C1 [Compound 153, (R)-(3-aminopiperidin-1-yl)(2-(5-bromo-1-(cyclopropylmethyl)-1H-indol-2-yl)-5,6-dihydro-4H-imidazo[1,5,4-de]quinoxalin-8-yl)methanone] | < 100 |
| Cc1ncc(Cn2c(-c3nc4cc(C(=O)N5CCC[C@@H](N)C5)ccn4c3C)cc3ccccc32)s1 [Compound 49, (R)-(3-aminopiperidin-1-yl)(3-methyl-2-(1-((2-methylthiazol-5-yl)methyl)-1H-indol-2-yl)imidazo[1,2-a]pyridin-7-yl)methanone] | < 100 |
| N[C@@H]1CCCN(C(=O)c2cc3c4c(c2)nc(-c2cc5ccccc5n2Cc2ccc(Cl)cc2)n4CCO3)C1 [Compound 99, (R)-(3-aminopiperidin-1-yl)(2-(1-(4-chlorobenzyl)-1H-indol-2-yl)-3,4-dihydro-5-oxa-1,2a-diazaacenaphthylen-7-yl)methanone] | 100 to 1000 |
| CCn1c(-c2nc3cc(C(=O)N4CCC[C@@H](N)C4)ccn3c2C)cc2ccccc21 [Compound 4, (R)-(3-aminopiperidin-1-yl)(2-(1-ethyl-1H-indol-2-yl)-3-methylimidazo[1,2-a]pyridin-7-yl)methanone] | < 100 |
| Cc1c(-c2cc3ccccc3n2Cc2cccnc2)nc2cc(C(=O)N3CCC[C@@H](N)C3)ccn12 [Compound 15, (R)-(3-aminopiperidin-1-yl)(3-methyl-2-(1-(pyridin-3-ylmethyl)-1H-indol-2-yl)imidazo[1,2-a]pyridin-7-yl)methanone] | < 100 |
| Cc1c(-c2cc3ccccc3n2Cc2ccc(CO)cc2)nc2cc(C(=O)N3CCC[C@@H](N)C3)ccn12 [Compound 81, (R)-(3-aminopiperidin-1-yl)(2-(1-(4-(hydroxymethyl)benzyl)-1H-indol-2-yl)-3-methylimidazo[1,2-a]pyridin-7-yl)methanone] | > 1000 |
| COc1ccc2cc(-c3nc4cc(C(=O)N5CCC[C@@H](N)C5)cc5c4n3CCN5)n(CC3CC3)c2c1 [Compound 159, (R)-(3-aminopiperidin-1-yl)(2-(1-(cyclopropylmethyl)-6-methoxy-1H-indol-2-yl)-5,6-dihydro-4H-imidazo[1,5,4-de]quinoxalin-8-yl)methanone] | 100 to 1000 |
| Cc1c(-c2cc3ccccc3n2CC(F)F)nc2cc(C(=O)N3CCC[C@@H](N)C3)ccn12 [Compound 78, (R)-(3-aminopiperidin-1-yl)(2-(1-(2,2-difluoroethyl)-1H-indol-2-yl)-3-methylimidazo[1,2-a]pyridin-7-yl)methanone trifluoroacetic acid salt] | > 1000 |
| N[C@@H]1CCCN(C(=O)c2cc3c4c(c2)nc(-c2cc5ccccc5n2CC2CCOCC2)n4CCO3)C1 [Compound 126, (R)-(3-aminopiperidin-1-yl)(2-(1-((tetrahydro-2H-pyran-4-yl)methyl)-1H-indol-2-yl)-3,4-dihydro-5-oxa-1,2a-diazaacenaphthylen-7-yl)methanone] | > 1000 |
| Cc1c(-c2cc3ccc(F)cc3n2Cc2ccncc2)nc2cc(C(=O)N3CCC[C@@H](N)C3)ccn12 [Compound 68, (R)-(3-aminopiperidin-1-yl)(2-(6-fluoro-1-(pyridin-4-ylmethyl)-1H-indol-2-yl)-3-methylimidazo[1,2-a]pyridin-7-yl)methanone] | < 100 |
| COc1ccc(Cn2c(-c3nc4cc(C(=O)N5CCC[C@@H](N)C5)ccn4c3C)cc3ccccc32)cc1 [Compound 12, (R)-(3-aminopiperidin-1-yl)(2-(1-(4-methoxybenzyl)-1H-indol-2-yl)-3-methylimidazo[1,2-a]pyridin-7-yl)methanone] | < 100 |
| Cc1cccc2cc(-c3nc4cc(C(=O)N5CCC[C@@H](N)C5)cc5c4n3CCN5)n(CC3CC3)c12 [Compound 170, (R)-(3-aminopiperidin-1-yl)(2-(1-(cyclopropylmethyl)-7-methyl-1H-indol-2-yl)-5,6-dihydro-4H-imidazo[1,5,4-de]quinoxalin-8-yl)methanone] | 100 to 1000 |
